Holding throughout (assay type): in vivo, male Donryu strain rats
In assay [1] the test system is Indomethacin-induced ulcer in rats. Put plainly: Indomethacin-induced ulcer in rats. Particulars: 300 mg/kg P.O., indomethacin 25 mg/kg s.c.; for Ulcer index: total lesion length, control 16.3 ± 2.4. How it is done:
Indomethacin-induced ulcer: Groups of ten male Donryu strain rats each weighing 200 to 215 g were deprived of food for 24 hours. Then, the pylorus was ligated under ether anethesia, after which indomethacin was administered subcutaneously in an amount of 25 mg/kg to each rat. Seven hours after the administration, each of the animals was sacrificed under ether anethesia to remove its stomach, followed by immersion in a 1% formalin solution for ten minutes. The stomach which had been semi-fixed was incised along its greater curvature, and the length (mm) of each lesion formed in the mucous membrane was measured under a dissecting microscope (10×). The total length (mm) of all the lesions of each rat was indicated as an ulcer index. Test medicine samples were given orally ten minutes before the pylorus logation.

For another assay, the system named is Shay's ulcer in rats. Put plainly: Shay's ulcer (pylorus ligation) in rats. Particulars: for Ulcer index: total ulcerated area in forestomach. How it is done:
Shay's ulcer: Groups of ten male Donryu strain rats each weighing 210 to 230 g were deprived of food for 48 hours. The pylorus of each rat was ligated according to the method of Shay et al [Gastroenterology, 5, 43-61 (1945)]. Each of the animals was allowed to stand abstained from food and water for further 14 hours and then sacrificed to remove its stomach. After collection of the gastric juice, the ulcerated area (mm^2) in the forestomach of each rat was measured under a dissecting microscope (10×). The total area (mm^2) of all the lesions of each rat was indicated as an ulcer index. Test medicine samples were given orally immediately after the pylorus ligation.

The subject of a further assay is Stress ulcer in rats. Put plainly: Stress ulcer (restraint and water immersion) in rats. Conditions: for Ulcer index: total lesion length in glandular portion, control 15.2 ± 3.2. How it is done: Stress ulcer: Groups of ten male Donryu strain rats each weighing 240 to 260 g were placed in a stress cage which served to immobilize the animals therein and then immersed in a water bath of 23° C. on a level with the xiphoid process according to the method of K. Takagi et al [Jap. J. Pharmac., 18 (9), 9-19 (1968)], thereby imposing stress on each rat. Seven hours after the immersion, each of the animals was withdrawn from the water bath and immediately sacrificed by a blow on the head, followed by removal of the stomach of each rat. The stomach was slightly inflated by injecting a 1% formalin solution and then immediately immersed in a 1% formalin solution, followed by incising the stomach along its greater curvature to measure the length (mm) of each lesion in the glandular portion under a dissecting microscope (10×). The total length (mm) of all the lesions of each rat was indicated as an ulcer index. Test medicine samples were given orally ten minutes before the immersion in water.

Assay [2] has as its system Histamine-induced ulcer in rats. The assay is described as follows: Histamine-induced ulcer in rats. Particulars: 300 mg/kg P.O., histamine phosphate 300 mg/kg i.p.; for Ulcer index: total lesion length, control 24.1 ± 4.7. How it is done:
Histamine-induced ulcer: Groups of ten male Donryu strain rats each weighing 210 to 230 g were deprived of food for 48 hours and then administered intraperitoneally with histamine phosphate (300 mg/kg). Four hours after the administration, each of the animals was sacrificed under ether anesthesia, followed by removal of its stomach and immersion in a 1% formalin solution for ten minutes. The stomach which had been semi-fixed was incised along the greater curvature, and the length (mm) of each lesion was measured under a dissecting microscope (10×). The total length (mm) of all the lesions of each rat was indicated as an ulcer index. Test medicine samples were given orally before the histamine administration.

Assay [3] deals with Aspirin-induced ulcer in rats. Put plainly: Aspirin-induced ulcer in rats. Conditions: 1,000 mg/kg P.O., aspirin 100 mg/kg; for Ulcer index: total lesion length, control 17.7 ± 2.3. How it is done:
Aspirin-induced ulcer: Groups of ten male Donryu strain rats each weighing 220 to 230 g were deprived of food for 24 hours. The pylorus of each rat was ligated under ether anethesia according to the method of S. Okabe et al [Jap. J. Pharmac. 24, 357-361 (1974)]. After the pylorus ligation, aspirin (100 mg/kg) was administered orally to each rat. Seven hours after the administration, each of the animals was sacrificed under ether anesthesia to remove its stomach. After collection of the gastric juice and treatment with a 1% formalin solution, the length (mm) of each lesion formed in the glandular portion was measured. The total length (mm) of all the lesions of each rat was indicated as an ulcer index. Test medicine samples were given orally immediately after the pylorus ligation.

[4] abbreviates: 1,000 mg/kg P.O., first series (control 2.4 ± 0.7).
Where [5] appears, read: 1,000 mg/kg P.O., second series (control 2.9 ± 0.4).
Setting [6] is: 2,000 mg/kg P.O., second series (control 2.9 ± 0.4).

Consider six compounds from patent US4339378A, “N-Acylcarnosine aluminum salts” (Nippon Chemiphar Co., Ltd., priority 1979, dated 1982).

With `NCCC(=O)N[C@@H](Cc1cnc[nH]1)C(=O)O` [L-Carnosine, L-carnosine], the “% Inhibition” value in assay [1] is on record as ~ 0%; in the assay on Shay's ulcer in rats (setting [4]), 12.5%; in the assay on Stress ulcer in rats (300 mg/kg P.O.) it was 6.6%; in the assay with Stress ulcer in rats (1,000 mg/kg P.O.), 29.6%; in assay [2], 28.2%. In addition, the Ulcer index in assay [1] is 17.3 ± 3.0 mm; in the assay with Shay's ulcer in rats (setting [4]), 2.1 ± 0.7 mm^2; in the assay with Stress ulcer in rats (300 mg/kg P.O.), 14.2 ± 3.7 mm; with Stress ulcer in rats (1,000 mg/kg P.O.), 10.7 ± 2.2 mm; in assay [2], 17.3 ± 3.2 mm.
In the case of N-acetyl-L-carnosine aluminum salt [B], in the assay with Shay's ulcer in rats (setting [5]), the “% Inhibition” value amounted to 79.3% and the Ulcer index amounted to 0.6 ± 0.8 mm^2.
Regarding `CC(=O)N[C@@H](CCC(N)=O)C(=O)O.[Al]` [N-Acetyl-L-glutamine aluminum, N-acetyl-L-glutamine aluminum], in the assay with Shay's ulcer in rats (setting [6]), the “% Inhibition” value is 69.0% and the Ulcer index stood at 0.9 ± 0.7 mm^2.
On to N-acetylcarnosine aluminum salt, for which the “% Inhibition” value in assay [1] is reported as 63.2%; in the assay on Shay's ulcer in rats (setting [4]) it was 80.4%; with Stress ulcer in rats (300 mg/kg P.O.), 46.7%; with Stress ulcer in rats (1,000 mg/kg P.O.), 70.4%; in assay [3], 96.0%; in assay [2], 61.0%. For the same compound, the Ulcer index in assay [1] is 6.0 ± 2.4 mm; with Shay's ulcer in rats (setting [4]), 0.47 ± 0.4 mm^2; with Stress ulcer in rats (300 mg/kg P.O.), 8.1 ± 2.9 mm; with Stress ulcer in rats (1,000 mg/kg P.O.) it was 4.5 ± 2.4 mm; in assay [3], 0.7 ± 0.6 mm; in assay [2] it was 9.4 ± 2.0 mm.
Consider aluminum sucrose sulfate, for which the “% Inhibition” value in assay [1] is 52.1%; in the assay with Shay's ulcer in rats (setting [4]), 71.0%; with Shay's ulcer in rats (setting [5]) it was 72.4%; in the assay on Stress ulcer in rats (1,000 mg/kg P.O.) it was 56.7%; in assay [3], 79.1%; in assay [2], 40.2%. Also, the Ulcer index came to 7.8 ± 3.0 mm in assay [1]; 0.7 ± 0.8 mm^2 with Shay's ulcer in rats (setting [4]); 0.8 ± 0.6 mm^2 with Shay's ulcer in rats (setting [5]); 6.5 ± 6.0 mm in the assay on Stress ulcer in rats (1,000 mg/kg P.O.); 3.7 ± 2.1 mm in assay [3]; 14.4 ± 1.5 mm in assay [2].
On to `NC(=O)CC[C@H](N)C(=O)O` [L-Glutamine, L-glutamine], for which the “% Inhibition” value is 41.8% in assay [1], 8.3% with Shay's ulcer in rats (setting [4]) and 66.1% in assay [3]. For the same compound, the Ulcer index amounted to 9.5 ± 4.1 mm in assay [1], 2.2 ± 0.8 mm^2 with Shay's ulcer in rats (setting [4]) and 6.0 ± 2.2 mm in assay [3].

The % Inhibition is the share of the control response that was lost under treatment. Read a high % Inhibition as strong suppression.
